Tests used:
[1] = tested on: L6 muscle cells; experiment: [3H]-2-deoxyglucose (2DG) uptake in L6 muscle cells with and without added insulin (Study 1); format: cell-based
Procedure: L6 Muscle cells were obtained from the European Culture Collection (Porton Down) and were used at passages 7-11. Cells were maintained in standard tissue culture medium DMEM, and glucose uptake was assessed using [^3H]-2-deoxyglucose (2DG) with and without the presence of added insulin (10^−8 M) as has been previously described (Walker P S et al, Glucose transport activity in L6 muscle cells is regulated by the coordinate control of subcellular glucose transporter distribution, biosynthesis, and mRNA transcription, JBC, 1990;265(3), 1516-1523, and Kilp A et al, Stimulation of hexose transport by metformin in L6 muscle cells in culture, Endocrinology, 1992;130(5), 2535-2544).
Uptake of 2DG was expressed as the percentage change compared with control. Values are presented as mean±SEM of sets of 4 wells per experiment. Differences between sets of wells were evaluated by Student's t test, probability values p<0.05 were considered to be significant. […] In the presence of added insulin (10^−8 M), significant increases in 2DG uptake were observed following 24 hour incubation with the compound of formula I in which R1 and R2 are both methyl (sibutramine hydrochloride monohydrate) at 10^−8 M (from 149.9±4.3 to165.3±2.6), the compound of formula I in which R1 is methyl and R2 is H at 10^−7 M (from 147.3±3.0 to 160.7±4.5), and the compound of formula I in which R1 and R2 are both H, at 10^−7 M and 10^−6 M (from 149.1±3.9 to 161.8±3.3 and 165.2±3.6 respectively).

[2] = tested on: ob/ob mice (Aston Strain); experiment: Chronic administration (10 mg/kg po) and withdrawal in obese ob/ob mice: plasma glucose, plasma insulin, body weight, food intake (Study 2); format: in vivo
Procedure: Studies were performed in obese ob/ob mice (Aston Strain) which are a model of severe insulin resistance and are also hyperglycaemic. The derivation and characteristics of this animal model have been previously described (Flatt P R, Bailey C J, Development of glucose intolerance and impaired plasma insulin response to glucose in obese hyperglycaemic (ob/ob) mice, Horm Metab Res 1981;13:556-560, and Bailey C J et al, Influence of genetic background and age on the expression of the obese hyperglycaemic syndrome in Aston ob/ob mice, Int J Obesity, 1982;6:11-21).
The ob/ob mice were individually housed in polypropylene cages at a temperature of 21±1° C. and 55% humidity. The mice had free access to a standard rat and mouse pelleted diet (Compound Rat and Mouse Diet, Special Diet Services, Witham, Essex) and tap water at all times. Animals were maintained on a reverse phase light-dark cycle. Lights were off between 09.00 h and 17.00 h in the acute experiment and between 10.00 h and 18.00 h in the chronic experiment. During this time the laboratory was illuminated by red lamps. Animals were acclimatised to these conditions for at least two weeks before experimentation.
All animals were given deionised water (at the start of the dark period) for 7 days. Body weight and food intake were measured daily. Blood samples were taken immediately before daily administration of vehicle (deionised water 10 ml/kg po) or compound of formula I in which R1 and R2 are both methyl (sibutramine hydrochloride monohydrate; 10 mg/kg po) on day 1 (baseline) and after 14 and 28 days of treatment (on day 15 and day 29 respectively). Blood samples were also taken 14 days following withdrawal of the sibutramine hydrochloride monohydrate (on day 43 of the study). Plasma glucose was determined by a glucose oxidase procedure (Analox GM7) and plasma insulin determined by radioimmunoassay (Amerlex, Amersham).

[3] = tested on: ob/ob mice (Aston Strain); experiment: 6 weeks of treatment (5 mg/kg/day po) and 6 weeks of withdrawal in young ob/ob mice: body weight, plasma insulin, ip glucose tolerance test, insulin hypoglycaemia test (Study 3); format: in vivo
Procedure: Young ob/ob mice (Aston Strain) were randomised into 3 groups as follows: control, receiving placebo treatment (phosphate buffered saline 2.5 ml/kg/day po); sibutramine hydrochloride monohydrate-treated (5 mg/kg/day po); and pair-fed control, supplied with the same daily food intake as that consumed by the sibutramine hydrochloride monohydrate-treated group on the previous day. There was a 1 week run-in period followed by 6 weeks of treatment. Body weight and food intake were monitored every 1 to 2 days, and blood samples for plasma glucose and insulin were taken from the tail vein at weekly intervals in the non-fasted state at 11 a.m. An ip glucose tolerance test (D-glucose, 2 g/kg in 40% w/v solution in distilled water) and an insulin hypoglycaemia test (Actrapid, Novo-Nordisk, 2.5 u/kg ip) were conducted after 5 weeks of treatment. Food was withheld only for the duration of these tests (approx. 4 hours). The basal blood samples and the test procedures were undertaken 18 hours after the last treatment administration.
Treatment was stopped after 6 weeks, and the mice were monitored for the next 6 weeks. The pair-fed mice continued to be pair-fed with respect to the sibutramine hydrochloride monohydrate withdrawal group. A second insulin hypoglycaemia test was conducted 4 weeks after treatment was stopped. Plasma glucose was determined by an automated glucose oxidase procedure (Beckman) and plasma insulin determined by radioimmunnoassay (Amerlex, Amersham).

[4] = compound group, day 1 of study, prior to treatment (baseline), mean ± SEM
[5] = 6 week withdrawal period after 5 mg/kg/day po, vs vehicle treated group, for almost all of the period
[6] = added insulin 10^−8 M, 24 hour incubation, compound 10^−7 M, insulin alone 147.3±3.0 (R1 methyl, R2 H) or 149.1±3.9 (both H), mean±SEM

CC(C)CC(N(C)C)C1(c2ccc(Cl)cc2)CCC1.Cl.O (stereo not drawn) [sibutramine hydrochloride monohydrate, N,N-dimethyl-1-[1-(4-chlorophenyl)cyclobutyl]-3-methylbutylamine hydrochloride monohydrate]
Uptake of 2DG, percentage change compared with control ([1]; added insulin 10^−8 M, 24 hour incubation, compound 10^−8 M, insulin alone 149.9±4.3, mean±SEM): 165.3±2.6% | Plasma glucose (in words) ([2]; 10 mg/kg po daily, after 14 and 28 days of treatment, significant difference from control at day 28 (P<0.01)): fell | Plasma glucose ([2]; 10 mg/kg po daily, day 15 of study (14 days of treatment), vehicle 21.7 ± 0.9, mean ± SEM): 19.0 ± 0.6 mmol/L | Plasma insulin ([2]; 10 mg/kg po daily, day 15 of study (14 days of treatment), vehicle 49.7 ± 3.5, mean ± SEM): 45.1 ± 2.6 ng/mL | Plasma glucose ([2]; 10 mg/kg po daily, day 29 of study (28 days of treatment), vehicle 26.0 ± 1.4, **P < 0.01 vs vehicle, mean ± SEM): 15.8 ± 0.7** mmol/l | Plasma insulin ([2]; 10 mg/kg po daily, day 29 of study (28 days of treatment), vehicle 46.2 ± 4.5, mean ± SEM): 35.1 ± 2.7 ng/mL | Plasma insulin (in words) ([2]; 10 mg/kg po daily, tended to fall on treatment and increased on withdrawal): No significant changes | Body weight (in words) ([2]; 10 mg/kg po daily, vs vehicle): No significant changes | Food intake (in words) ([2]; 10 mg/kg po daily, vs vehicle): No significant changes | Plasma glucose (in words) ([2]; after 14 days of drug withdrawal, rose to control values): rose significantly | Plasma glucose [2, 4]: 24.3 ± 0.6 mmol/L | Plasma insulin [2, 4]: 92.0 ± 4.5 ng/mL | Plasma glucose ([2]; day 43 of study, 14 days after drug withdrawal, vehicle 22.9 ± 1.7, mean ± SEM): 23.6 ± 1.2 mmol/L | Plasma insulin ([2]; day 43 of study, 14 days after drug withdrawal, vehicle 40.6 ± 8.6, mean ± SEM): 77.1 ± 11.3 ng/mL | Plasma insulin in ip glucose tolerance test (in words) ([3]; 5 mg/kg/day po, after 5 weeks of treatment, D-glucose 2 g/kg ip, vs vehicle, P<0.05, FIG. 1): significant reductions | Plasma glucose in ip glucose tolerance test (in words) ([3]; 5 mg/kg/day po, after 5 weeks of treatment, D-glucose 2 g/kg ip, vs vehicle, P<0.05, FIG. 2): significant reductions | Insulin hypoglycaemia test (in words) ([3]; 5 mg/kg/day po, at 5 weeks, insulin 2.5 u/kg ip, vs vehicle, P<0.05, FIG. 3): Significant improvements | Body weight (in words) ([3]; 5 mg/kg/day po, during 6 weeks of treatment, compared to vehicle): significant reduction | Plasma insulin (in words) ([3]; 5 mg/kg/day po, during 6 weeks of treatment, non-fasted, compared to vehicle): significant reduction | Body weight (in words) [3, 5]: remained significantly lower | Plasma insulin (in words) [3, 5]: remained significantly lower

CNC(CC(C)C)C1(c2ccc(Cl)cc2)CCC1 (stereo not drawn) [N-{1-[1-(4-chlorophenyl)cyclobutyl]-3-methylbutyl}-N-methylamine]
Uptake of 2DG, percentage change compared with control [1, 6]: 160.7±4.5%

CC(C)CC(N)C1(c2ccc(Cl)cc2)CCC1 (stereo not drawn) [1-[1-(4-chlorophenyl)cyclobutyl]-3-methylbutylamine]
Uptake of 2DG, percentage change compared with control ([1]; absence of added insulin, 24 hours incubation, compound 10^−6 M, control 100±2.1, mean±SEM): 134±7.3% | Uptake of 2DG, percentage change compared with control ([1]; absence of added insulin, 24 hours incubation, compound 10^−7 M, control 100±2.1, mean±SEM): 123.9±4.3% | Uptake of 2DG, percentage change compared with control ([1]; absence of added insulin, 24 hours incubation, compound 10^−8 M, control 100±2.1, mean±SEM): 116.9±3.8% | Uptake of 2DG, percentage change compared with control ([1]; added insulin 10^−8 M, 24 hour incubation, compound 10^−6 M, insulin alone 149.1±3.9, mean±SEM): 165.2±3.6% | Uptake of 2DG, percentage change compared with control [1, 6]: 161.8±3.3%
